Patent US5087439A, “Paramagnetic metal-diethylenetriamine-pentaacetic acid partial amide complexes for magnetic resonance imaging” (Salutar, Inc., priority 1989, dated 1992)

Legend:
[1] = Relaxivity (T1, T2) of the compound in human plasma at 10 MHz (37° C.); format: physicochemical; conditions: for T1 Plasma / T2 Plasma: 10 MHz, 37° C.
Method: (§1) Relaxivity of the compound in water and in human plasma at 10 MHz (37° C.) (for practical purposes, the lower the T1 in a given part of the body, the brighter the image in MR imaging):
(§2) *T1 and T2 are relaxtion times in msec.

[2] = Relaxivity (T1, T2) of the compound in water at 10 MHz (37° C.); format: physicochemical
Method: as §1, §2

[3] = vs prior art compound, same dosage, from blood T1 at 20 minutes
Method: Pharmacokinetics of the compound in a pure breed beagle dog
A male dog was injected with the test compounds at 100 μ mol/kg. Blood was drawn at the indicated times. The plasma was separated and the relaxivity measured.

[4] = Organ distribution of the compound in male rabbits (organ T1 measured in vitro at 5 MHz); conditions: 100 μmol/kg; for T1, Skeletal Muscle: male rabbits, 15 min post injection, 5 MHz
Method: The test compounds were injected into male rabbits at 100 μmol/kg. The rabbits were sacrificed at 15 minutes post injection and the relaxivity of internal organs was measured in vitro at 5 MHz.
The test compounds were injected into male rabbits at 100 μ mol/kg. The rabbits were sacrificed at 15 minutes post injection and the relaxivity of internal organs was measured in vitro at 5 MHz.

SMILES: CCCCCCNC(=O)CN(CCN(CCN(CC(=O)[O-])CC(=O)NCCCCCC)CC(=O)[O-])CC(=O)[O-].[Gd+3] [Gd DTPA-bishexylamide]
- T1 Plasma ([1]; 1.17 × 10^-3 M): 83 ms
- T2 Plasma ([1]; 1.17 × 10^-3 M): 71 ms
- T1 Plasma ([1]; 1.46 × 10^-4 M): 403 ms
- T1 Plasma ([1]; 1.82 × 10^-5 M): 1087 ms
- T1 Plasma ([1]; 2.34 × 10^-3 M): 48 ms
- T2 Plasma ([1]; 2.34 × 10^-3 M): 39 ms
- T1 Plasma ([1]; 2.92 × 10^-4 M): 249 ms
- T1 Plasma ([1]; 3.68 × 10^-5 M): 881 ms
- T1 Plasma ([1]; 4.67 × 10^-3 M): 26 ms
- T2 Plasma ([1]; 4.67 × 10^-3 M): 21 ms
- T1 Plasma ([1]; 5.84 × 10^-4 M): 145 ms
- T2 Plasma ([1]; 5.84 × 10^-4 M): 123 ms
- T1 Plasma ([1]; 7.30 × 10^-5 M): 622 ms
- T1 Plasma ([1]; 9.12 × 10^-6 M): 1220 ms
- T1 Plasma ([1]; 9.34 × 10^-3 M): 15 ms
- T2 Plasma ([1]; 9.34 × 10^-3 M): 10 ms
- proton relaxation in plasma compared with the prior art compound ([1]; vs Gd DTPA-di(N-methylglucamine), human plasma): almost three times better
- T1 Water ([2]; 1.17 × 10^-3 M): 159 ms
- T2 Water ([2]; 1.17 × 10^-3 M): 147 ms
- T1 Water ([2]; 1.46 × 10^-4 M): 947 ms
- T1 Water ([2]; 2.34 × 10^-3 M): 81 ms
- T2 Water ([2]; 2.34 × 10^-3 M): 76 ms
- T1 Water ([2]; 2.92 × 10^-4 M): 561 ms
- T1 Water ([2]; 4.67 × 10^-3 M): 42 ms
- T2 Water ([2]; 4.67 × 10^-3 M): 36 ms
- T1 Water ([2]; 5.84 × 10^-4 M): 309 ms
- T1 Water ([2]; 7.30 × 10^-5 M): 1374 ms
- T1 Water ([2]; 9.34 × 10^-3 M): 23 ms
- T2 Water ([2]; 9.34 × 10^-3 M): 18 ms
- improvement in image signal intensity [3]: two-fold
- T1, Skeletal Muscle [4]: 397 ms

SMILES: C[NH2+]C[C@H](O)[C@@H](O)[C@H](O)[C@H](O)CO.C[NH2+]C[C@H](O)[C@@H](O)[C@H](O)[C@H](O)CO.O=C([O-])CN(CCN(CC(=O)[O-])CC(=O)[O-])CCN(CC(=O)[O-])CC(=O)[O-].[Gd+3] [Gd DTPA-di(N-methylglucamine), reference compound]
- T1 Plasma ([1]; 1.56 × 10^-3 M): 134 ms
- T2 Plasma ([1]; 1.56 × 10^-3 M): 116 ms
- T1 Plasma ([1]; 1.95 × 10^-4 M): 636 ms
- T1 Plasma ([1]; 3.13 × 10^-3 M): 69 ms
- T2 Plasma ([1]; 3.13 × 10^-3 M): 61 ms
- T1 Plasma ([1]; 3.91 × 10^-4 M): 405 ms
- T1 Plasma ([1]; 6.25 × 10^-3 M): 39 ms
- T2 Plasma ([1]; 6.25 × 10^-3 M): 31 ms
- T1 Plasma ([1]; 7.81 × 10^-4 M): 240 ms
- T1 Plasma ([1]; 9.77 × 10^-5 M): 877 ms
- T1 Water ([2]; 1.56 × 10^-3 M): 163 ms
- T2 Water ([2]; 1.56 × 10^-3 M): 155 ms
- T1 Water ([2]; 1.95 × 10^-4 M): 1015 ms
- T1 Water ([2]; 3.13 × 10^-3 M): 83 ms
- T2 Water ([2]; 3.13 × 10^-3 M): 76 ms
- T1 Water ([2]; 3.91 × 10^-4 M): 582 ms
- T1 Water ([2]; 6.25 × 10^-3 M): 40 ms
- T2 Water ([2]; 6.25 × 10^-3 M): 35 ms
- T1 Water ([2]; 7.81 × 10^-4 M): 309 ms
- T1, Skeletal Muscle [4]: 405 ms
- change in spin lattice (T1) relaxation in the heart and liver ([4]; rabbits, 15 min, heart and liver): fails to produce any change
